# Patent US20100029657A1, “Bridged, Bicyclic Heterocyclic or Spiro Bicyclic Heterocyclic Derivatives of Pyrazolo[1, 5-A]Pyrimidines, Methods for Preparation and Uses Thereof” (Wyeth, priority 2008, published 2010)
# pIC50: −log10 of the molar value. Structures can show the parent of a compound that is named as a salt.
# Target: T1, Flag/GST-tagged recombinant human B-Raf (Homo sapiens, UniProt P15056)
# T1 construct: Flag; GST; made in house; host or cells: Sf9 insect cells (B-Raf); E. coli (MEK1-GST)
# Experiment: B-Raf kinase assay (phosphorylation of GST-MEK1, phospho-MEK1 antibody/Europium detection)
# Type: biochemical
# Settings: B-Raf IC50 Data for compounds of Formula A; read-out: Mean IC50
# Outline: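 Active B-Raf (0.2 nM) phosphorylates GST-MEK1 in 20 mM MOPS pH 7.2 buffer with DTT, vanadate and 0.01% Triton X-100. The Mg/ATP cocktail (200 μM ATP, 40 mM MgCl2) is added, then incubation runs 45 min at RT. Product is captured on anti-GST plates and detected by anti-phospho-MEK1 plus Europium-anti-rabbit fluorescence, giving % inhibition per concentration.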
# T1 sequence (P15056 whole entry): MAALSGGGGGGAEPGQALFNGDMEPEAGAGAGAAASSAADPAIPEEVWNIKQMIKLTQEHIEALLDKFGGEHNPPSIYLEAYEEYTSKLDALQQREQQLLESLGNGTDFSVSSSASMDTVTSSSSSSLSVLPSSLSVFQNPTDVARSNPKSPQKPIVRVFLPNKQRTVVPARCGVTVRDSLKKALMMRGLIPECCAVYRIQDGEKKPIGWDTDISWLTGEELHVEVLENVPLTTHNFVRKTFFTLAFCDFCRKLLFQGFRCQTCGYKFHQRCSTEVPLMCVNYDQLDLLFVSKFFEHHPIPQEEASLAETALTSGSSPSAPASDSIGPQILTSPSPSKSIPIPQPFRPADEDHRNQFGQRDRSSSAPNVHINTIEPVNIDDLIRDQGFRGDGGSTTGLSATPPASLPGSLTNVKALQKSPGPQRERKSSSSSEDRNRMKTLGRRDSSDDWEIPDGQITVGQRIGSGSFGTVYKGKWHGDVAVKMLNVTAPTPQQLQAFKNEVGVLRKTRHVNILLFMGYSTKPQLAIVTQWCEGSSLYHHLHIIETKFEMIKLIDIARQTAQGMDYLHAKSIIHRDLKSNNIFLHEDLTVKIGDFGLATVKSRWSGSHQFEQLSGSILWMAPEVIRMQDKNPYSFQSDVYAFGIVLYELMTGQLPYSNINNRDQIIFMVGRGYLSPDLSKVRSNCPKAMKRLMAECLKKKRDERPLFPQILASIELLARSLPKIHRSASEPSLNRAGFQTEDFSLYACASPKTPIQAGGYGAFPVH
row,pIC50,Structure (SMILES)
1,> 9.52,"Cc1cc(N2C[C@@H]3C[C@H]2CN3C)ccc1-c1ccnc2c(-c3ccc(F)c(O)c3)c(-c3ccncc3)nn12 [Example 56, 2-Fluoro-5-(7-(2-methyl-4-((1S,4S)-5-methyl-2,5-diazabicyclo[2.2.1]heptan-2-yl)phenyl)-2-(pyridin-4-yl)pyrazolo[1,5-a]pyrimidin-3-yl)phenol]"
2,> 9.52,"Cc1cc(N2C[C@@H]3C[C@H]2CN3C)ccc1-c1ccnc2c(-c3cccc(O)c3)c(-c3ccncc3)nn12 [Example 58, 3-(7-(2-Methyl-4-((1S,4S)-5-methyl-2,5-diazabicyclo[2.2.1]heptan-2-yl)phenyl)-2-(pyridin-4-yl)pyrazolo[1,5-a]pyrimidin-3-yl)phenol]"
3,> 9.52,"Oc1cccc(-c2c(-c3ccncc3)nn3c(-c4ccc(N5C[C@@H]6C[C@H]5CN6)cc4Cl)ccnc23)c1 [Example 59, 3-(7-(4-((1S,4S)-2,5-Diazabicyclo[2.2.1]heptan-2-yl)-2-chlorophenyl)-2-(pyridin-4-yl)pyrazolo[1,5-a]pyrimidin-3-yl)phenol]"
4,> 9.52,"CN1C[C@@H]2C[C@H]1CN2c1ccc(-c2ccnc3c(-c4cccc(O)c4)c(-c4ccncc4)nn23)c(Cl)c1 [Example 60, 3-(7-(2-Chloro-4-((1S,4S)-5-methyl-2,5-diazabicyclo[2.2.1]heptan-2-yl)phenyl)-2-(pyridin-4-yl)pyrazolo[1,5-a]pyrimidin-3-yl)phenol]"
5,> 9.52,"Clc1cc(N2C[C@@H]3C[C@H]2CN3)ccc1-c1ccnc2c(-c3cccc4[nH]ncc34)c(-c3ccncc3)nn12 [Example 61, 7-(4-((1S,4S)-2,5-Diazabicyclo[2.2.1]heptan-2-yl)-2-chlorophenyl)-3-(1H-indazol-4-yl)-2-(pyridin-4-yl)pyrazolo[1,5-a]pyrimidine]"
6,> 9.52,"CN1C[C@@H]2C[C@H]1CN2c1ccc(-c2ccnc3c(-c4cccc5[nH]ncc45)c(-c4ccncc4)nn23)c(Cl)c1 [Example 62, 7-(2-Chloro-4-((1S,4S)-5-methyl-2,5-diazabicyclo[2.2.1]heptan-2-yl)phenyl)-3-(1H-indazol-4-yl)-2-(pyridin-4-yl)pyrazolo[1,5-a]pyrimidine]"
7,6.52,"CCOC(=O)N1C2CCC1CC(c1ccnc3c(-c4cccc(F)c4F)c(-c4ccncc4)nn13)C2 (centres unmarked) [Example 65, Ethyl 3-(3-(2,3-difluorophenyl)-2-(pyridin-4-yl)pyrazolo[1,5-a]pyrimidin-7-yl)-8-azabicyclo[3.2.1]octane-8-carboxylate]"
8,6.48,"CCOC(=O)N1C2CCC1CC(c1ccnc3c(-c4cccc(NS(C)(=O)=O)c4)c(-c4ccncc4)nn13)C2 (centres unmarked) [Example 66, Ethyl 3-(3-(3-(methylsulfonamido)phenyl)-2-(pyridin-4-yl)pyrazolo[1,5-a]pyrimidin-7-yl)-8-azabicyclo[3.2.1]octane-8-carboxylate]"
9,< 6.00,"CCN1C2CCC1CC(c1ccnc3c(-c4ccc(NC(=O)OC)cc4)c(-c4ccncc4)nn13)C2 (centres unmarked) [Example 67, Methyl 4-(7-(8-ethyl-8-azabicyclo[3.2.1]octan-3-yl)-2-(pyridin-4-yl)pyrazolo[1,5-a]pyrimidin-3-yl)phenylcarbamate]"
10,6.25,"CCN1C2CCC1CC(c1ccnc3c(-c4ccc(NC=O)c(O)c4)c(-c4ccncc4)nn13)C2 (centres unmarked) [Example 72a, N-(4-(7-(8-Ethyl-8-azabicyclo[3.2.1]octan-3-yl)-2-(pyridin-4-yl)pyrazolo[1,5-a]pyrimidin-3-yl)-2-hydroxyphenyl)formamide]"
11,6.38,"CCN1C2CCC1CC(c1ccnc3c(-c4ccc(NC=O)c(OC)c4)c(-c4ccncc4)nn13)C2 (centres unmarked) [Example 72b, N-(4-(7-(8-ethyl-8-azabicyclo[3.2.1]octan-3-yl)-2-(pyridin-4-yl)pyrazolo[1,5-a]pyrimidin-3-yl)-2-methoxyphenyl)formamide]"
12,8.40,"CCN1C2CCC1CC(c1ccnc3c(-c4ccc(Cl)c5[nH]ncc45)c(-c4ccncc4)nn13)C2 (centres unmarked) [Example 79, 3-(7-Chloro-1H-indazol-4-yl)-7-(8-ethyl-8-azabicyclo[3.2.1]oct-3-yl)-2-pyridin-4-ylpyrazolo[1,5-a]pyrimidin, trifluoroacetate salt]"
13,7.32,"CCN1C2CCC1CC(c1ccnc3c(-c4ccc(C(F)(F)F)c5[nH]ncc45)c(-c4ccncc4)nn13)C2 (centres unmarked) [Example 80, 7-(8-Ethyl-8-azabicyclo[3.2.1]oct-3-yl)-2-pyridin-4-yl-3-[7-(trifluoromethyl)-1H-indazol-4-yl]pyrazolo[1,5-a]pyrimidine, trifluoroacetate salt]"
14,8.70,"CCN1C2CCC1CC(c1ccnc3c(-c4cc(F)c(Cl)c5[nH]ncc45)c(-c4ccncc4)nn13)C2 (centres unmarked) [Example 82, 3-(7-Chloro-6-fluoro-1H-indazol-4-yl)-7-(8-ethyl-8-azabicyclo[3.2.1]oct-3-yl)-2-pyridin-4-ylpyrazolo[1,5-a]pyrimidine, trifluoro acetate salt]"
15,7.44,"CCOC(=O)N1C2CCC1CC(c1ccnc3c(-c4ccc5cc[nH]c5c4)c(-c4ccncc4)nn13)C2 (centres unmarked) [Example 85, Ethyl 3-[3-(1H-indol-6-yl)-2-pyridin-4-ylpyrazolo[1,5-a]pyrimidin-7-yl]-8-azabicyclo[3.2.1]octane-8-carboxylate]"
16,7.49,"CCN1C2CCC1CC(c1ccnc3c(-c4ccc5cc[nH]c5c4)c(-c4ccncc4)nn13)C2 (centres unmarked) [Example 87, 7-(8-Ethyl-8-azabicyclo[3.2.1]oct-3-yl)-3-(1H-indol-6-yl)-2-pyridin-4-ylpyrazolo[1,5-a]pyrimidine]"
17,7.34,"CCN1C2CCC1CC(c1ccnc3c(-c4cccc5[nH]ncc45)c(-c4ccncc4)nn13)C2 (centres unmarked) [Example 90, 7-(8-Ethyl-8-azabicyclo[3.2.1]octan-3-yl)-3-(1H-indazol-4-yl)-2-(pyridin-4-yl)pyrazolo[1,5-a]pyrimidine]"
18,6.79,"CCOC(=O)N1C2CCC1CC(c1ccnc3c(-c4cccc(-c5nnco5)c4)c(-c4ccncc4)nn13)C2 (centres unmarked) [Example 91, Ethyl 3-(3-(3-(1,3,4-oxadiazol-2-yl)phenyl)-2-(pyridin-4-yl)pyrazolo[1,5-a]pyrimidin-7-yl)-8-azabicyclo[3.2.1]octane-8-carboxylate]"
19,> 9.52,"Fc1cc(N2C[C@@H]3C[C@H]2CN3)ccc1-c1ccnc2c(-c3cccc4[nH]ncc34)c(-c3ccncc3)nn12 [Example 93, 7-{4-[(1S,4S)-2,5-diazabicyclo[2.2.1]hept-2-yl]-2-fluorophenyl}-3-(1H-indazol-4-yl)-2-pyridin-4-ylpyrazolo[1,5-a]pyrimidine]"
20,10.00,"CN1C[C@@H]2C[C@H]1CN2c1ccc(-c2ccnc3c(-c4cccc5[nH]ncc45)c(-c4ccncc4)nn23)c(F)c1 [Example 94, 7-{2-Fluoro-4-[(1S,4S)-5-methyl-2,5-diazabicyclo[2.2.1]hept-2-yl]phenyl}-3-(1H-indazol-4-yl)-2-pyridin-4-yl pyrazolo[1,5-a]pyrimidine]"
21,9.23,"C[N+]1([O-])C[C@@H]2C[C@H]1CN2c1ccc(-c2ccnc3c(-c4cccc5[nH]ncc45)c(-c4ccncc4)nn23)c(F)c1 (stereo partly drawn) [Example 95, 7-{2-fluoro-4-[(1S,4S)-5-methyl-5-oxido-2,5-diazabicyclo[2.2.1]hept-2-yl]phenyl}-3-(1H-indazol-4-yl)-2-pyridin-4-ylpyrazolo[1,5-a]pyrimidine]"

row,Structure (SMILES),pIC50
1,"CCN1C2CCC1CC(c1ccnc3c(-c4ccc(F)c(O)c4)c(-c4ccncc4)nn13)C2 (centres unmarked) [Example 64, 5-(7-(8-Ethyl-8-azabicyclo[3.2.1]octan-3-yl)-2-(pyridin-4-yl)pyrazolo[1,5-a]pyrimidin-3-yl)-2-fluorophenol]",8.52
2,"CCN1C2CCC1CC(c1ccnc3c(-c4ccc(C#N)c(O)c4)c(-c4ccncc4)nn13)C2 (centres unmarked) [Example 68, 4-(7-(8-Ethyl-8-azabicyclo[3.2.1]octan-3-yl)-2-(pyridin-4-yl)pyrazolo[1,5-a]pyrimidin-3-yl)-2-hydroxybenzonitrile]",7.24
3,"CCOC(=O)N1C2CCC1CC(c1ccnc3c(-c4cccc5[nH]ncc45)c(-c4ccncc4)nn13)C2 (centres unmarked) [Example 73, Ethyl 3-[3-(1H-indazol-4-yl)-2-pyridin-4-ylpyrazolo[1,5-a]pyrimidin-7-yl]-8-azabicyclo[3.2.1]octane-8-carboxylate]",8.70
4,"CCN1C2CCC1CC(c1ccnc3c(-c4ccc(C)c5[nH]ncc45)c(-c4ccncc4)nn13)C2 (centres unmarked) [Example 77, 7-(8-ethyl-8-azabicyclo[3.2.1]oct-3-yl)-3-(7-methyl-1H-indazol-4-yl)-2-pyridin-4-ylpyrazolo[1,5-a]pyrimidine, trifluoroacetate salt]",7.77
5,"CCOC(=O)N1C2CCC1CC(c1ccnc3c(-c4ccc(C)c5[nH]ncc45)c(-c4ccncc4)nn13)C2 (centres unmarked) [Example 78, Ethyl 3-[3-(7-Methyl-1H-indazol-4-yl)-2-pyridin-4-ylpyrazolo[1,5-a]pyrimidin-7-yl]-8-azabicyclo[3.2.1]octane-8-carboxylate, trifuoroacetate salt]",9.15
6,"CCOC(=O)N1C2CCC1CC(c1ccnc3c(-c4ccc(F)c5[nH]ncc45)c(-c4ccncc4)nn13)C2 (centres unmarked) [Example 81, Ethyl 3-[3-(7-fluoro-1H-indazol-4-yl)-2-pyridin-4-ylpyrazolo[1,5-a]pyrimidin-7-yl]-8-azabicyclo[3.2.1]octane-8-carboxylate, trifluoroacetate salt]",9.40

# Same assay, conditions: Mean IC50 (uM), B-Raf IC50 Data for compounds of Formula A
row,Structure (SMILES),IC50 [µM]
1,"CCOC(=O)N1C2CCC1CC(c1ccnc3c(-c4ccc(Cl)c5[nH]ncc45)c(-c4ccncc4)nn13)C2 (centres unmarked) [Example 75, Ethyl 3-[3-(7-chloro-1H-indazol-4-yl)-2-pyridin-4-ylpyrazolo[1,5-a]pyrimidin-7-yl]-8-azabicyclo[3.2.1]octane-8-carboxylate]",0.0003
2,"CCOC(=O)N1C2CCC1CC(c1ccnc3c(-c4ccc(C(F)(F)F)c5[nH]ncc45)c(-c4ccncc4)nn13)C2 (centres unmarked) [Example 76, Ethyl 3-{2-pyridin-4-yl-3-[7-(trifluoromethyl)-1H-indazol-4-yl]pyrazolo[1,5-a]pyrimidin-7-yl}-8-azabicyclo[3.2.1]octane-8-carboxylate]",0.004
